Data taken from US10168342B2, “Lipid probes and uses thereof” (THE SCRIPPS RESEARCH INSTITUTE, priority 2015, dated 2019).
Where two headings read alike, the source gives them in different places.

Assays:
[1] = target: T1, AEA-DA lipid probe targets in Neuro2a cells (Mus musculus, UniProt Q9Z2Z6)
T1 sequence (Q9Z2Z6 1-301): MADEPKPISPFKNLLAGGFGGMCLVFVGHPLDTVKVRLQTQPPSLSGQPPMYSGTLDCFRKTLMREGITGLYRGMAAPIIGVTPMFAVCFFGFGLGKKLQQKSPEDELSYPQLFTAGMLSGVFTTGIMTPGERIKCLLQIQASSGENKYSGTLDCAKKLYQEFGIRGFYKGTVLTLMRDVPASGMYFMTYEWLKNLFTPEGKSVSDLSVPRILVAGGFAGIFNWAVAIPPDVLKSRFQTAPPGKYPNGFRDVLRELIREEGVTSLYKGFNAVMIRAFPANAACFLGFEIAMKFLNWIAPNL

[2] = target: T2, AEA-DA lipid probe targets in Neuro2a cells (Mus musculus, UniProt Q62186)
T2 sequence (Q62186 24-172): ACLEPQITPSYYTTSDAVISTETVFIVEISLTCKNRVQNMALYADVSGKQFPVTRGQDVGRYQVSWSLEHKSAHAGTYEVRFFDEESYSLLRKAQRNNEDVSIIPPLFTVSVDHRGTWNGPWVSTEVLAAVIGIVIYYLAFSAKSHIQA

[3] = target: AEA-DA lipid probe targets in Neuro2a cells (Mus musculus, UniProt P47740)
Sequence of AEA-DA lipid probe targets in Neuro2a cells (Mus musculus, UniProt P47740) (P47740 whole entry): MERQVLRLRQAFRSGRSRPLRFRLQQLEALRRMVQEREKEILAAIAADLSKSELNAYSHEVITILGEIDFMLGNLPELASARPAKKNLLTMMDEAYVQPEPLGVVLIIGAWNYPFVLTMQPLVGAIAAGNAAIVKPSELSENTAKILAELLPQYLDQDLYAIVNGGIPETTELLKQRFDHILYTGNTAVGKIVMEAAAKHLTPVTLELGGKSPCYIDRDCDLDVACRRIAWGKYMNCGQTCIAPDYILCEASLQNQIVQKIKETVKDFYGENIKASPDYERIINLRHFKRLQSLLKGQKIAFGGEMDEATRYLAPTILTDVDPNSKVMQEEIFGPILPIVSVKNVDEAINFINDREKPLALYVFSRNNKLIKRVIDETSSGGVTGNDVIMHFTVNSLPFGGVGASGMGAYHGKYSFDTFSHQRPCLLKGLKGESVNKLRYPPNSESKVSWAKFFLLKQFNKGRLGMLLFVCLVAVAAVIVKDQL

[4] = target: T3, AEA-DA lipid probe targets in Neuro2a cells (Mus musculus, UniProt Q8R2Y0); settings: for SILAC ratio, ABHD6 (Q8R2Y0): Neuro2a cells, AEA-DA probe
T3 sequence (Q8R2Y0 1-336): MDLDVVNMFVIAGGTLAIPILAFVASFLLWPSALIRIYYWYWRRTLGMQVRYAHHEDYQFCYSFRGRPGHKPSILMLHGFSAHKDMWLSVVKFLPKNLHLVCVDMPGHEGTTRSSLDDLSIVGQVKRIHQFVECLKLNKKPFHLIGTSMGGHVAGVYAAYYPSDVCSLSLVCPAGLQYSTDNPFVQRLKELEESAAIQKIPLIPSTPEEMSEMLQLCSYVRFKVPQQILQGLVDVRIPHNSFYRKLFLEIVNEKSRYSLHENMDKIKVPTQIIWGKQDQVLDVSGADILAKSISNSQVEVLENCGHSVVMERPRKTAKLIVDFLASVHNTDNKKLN

[5] = target: T4, AEA-DA lipid probe targets in Neuro2a cells (Mus musculus, UniProt Q91WS0)
T4 sequence (Q91WS0 1-108): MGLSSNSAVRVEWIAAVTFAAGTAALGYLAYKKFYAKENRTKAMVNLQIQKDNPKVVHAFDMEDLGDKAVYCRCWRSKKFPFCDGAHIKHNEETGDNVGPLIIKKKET

[6] = target: T5, AEA-DA lipid probe targets in Neuro2a cells (Mus musculus, UniProt Q91V01); settings: for SILAC ratio, LPCAT3 (Q6P1A2): Neuro2a cells, AEA-DA probe
T5 sequence (Q91V01 1-487): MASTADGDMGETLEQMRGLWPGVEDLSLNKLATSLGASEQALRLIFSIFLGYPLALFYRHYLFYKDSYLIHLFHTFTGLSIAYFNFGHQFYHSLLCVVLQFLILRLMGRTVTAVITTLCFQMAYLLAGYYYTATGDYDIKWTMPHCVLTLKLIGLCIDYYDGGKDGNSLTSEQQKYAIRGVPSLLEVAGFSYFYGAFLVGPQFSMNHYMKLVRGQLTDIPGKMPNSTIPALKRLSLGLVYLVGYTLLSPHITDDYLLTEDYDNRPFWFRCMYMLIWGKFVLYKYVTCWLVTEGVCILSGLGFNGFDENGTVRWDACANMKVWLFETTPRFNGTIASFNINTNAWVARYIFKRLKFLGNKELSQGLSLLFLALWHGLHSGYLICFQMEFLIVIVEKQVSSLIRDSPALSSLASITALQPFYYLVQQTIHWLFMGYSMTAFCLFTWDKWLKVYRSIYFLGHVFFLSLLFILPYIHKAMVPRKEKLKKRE

[7] = target: T6, AEA-DA lipid probe targets in Neuro2a cells (Mus musculus, UniProt Q61207); settings: for SILAC ratio, PSAP (P07602): Neuro2a cells, AEA-DA probe
T6 sequence (Q61207 60-557): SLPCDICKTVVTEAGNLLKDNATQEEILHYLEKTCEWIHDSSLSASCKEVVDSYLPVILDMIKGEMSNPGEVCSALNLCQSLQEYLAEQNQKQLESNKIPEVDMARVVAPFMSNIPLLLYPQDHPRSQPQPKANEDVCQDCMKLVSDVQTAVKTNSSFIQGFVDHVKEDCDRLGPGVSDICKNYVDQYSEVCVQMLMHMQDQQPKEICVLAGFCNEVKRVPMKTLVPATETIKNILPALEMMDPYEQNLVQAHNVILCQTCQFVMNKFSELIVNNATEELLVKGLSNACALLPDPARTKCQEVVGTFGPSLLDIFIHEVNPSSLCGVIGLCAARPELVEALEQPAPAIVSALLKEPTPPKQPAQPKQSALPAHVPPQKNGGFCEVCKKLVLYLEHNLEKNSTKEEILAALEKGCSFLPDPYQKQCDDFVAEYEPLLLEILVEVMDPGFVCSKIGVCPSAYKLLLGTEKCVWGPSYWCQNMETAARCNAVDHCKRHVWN

[8] = target: T7, AEA-DA lipid probe targets in Neuro2a cells (Mus musculus, UniProt O08749)
T7 sequence (O08749 36-509): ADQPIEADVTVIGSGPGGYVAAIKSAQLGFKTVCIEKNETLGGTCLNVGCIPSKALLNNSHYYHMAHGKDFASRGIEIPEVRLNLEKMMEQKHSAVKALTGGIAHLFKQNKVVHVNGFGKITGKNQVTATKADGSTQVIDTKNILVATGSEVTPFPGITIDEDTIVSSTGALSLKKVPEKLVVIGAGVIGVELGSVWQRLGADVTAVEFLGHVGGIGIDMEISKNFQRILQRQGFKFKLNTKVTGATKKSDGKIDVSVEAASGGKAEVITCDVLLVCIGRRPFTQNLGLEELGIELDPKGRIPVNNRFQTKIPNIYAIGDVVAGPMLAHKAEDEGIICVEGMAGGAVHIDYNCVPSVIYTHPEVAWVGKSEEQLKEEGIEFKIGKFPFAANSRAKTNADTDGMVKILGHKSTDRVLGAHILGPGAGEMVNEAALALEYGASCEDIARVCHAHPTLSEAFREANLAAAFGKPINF

Compound: O=C(/C=C/c1cccnc1)NCCCCC1CCN(C(=O)c2ccccc2)CC1 [FK-866, reference compound]
- SILAC ratio Slc25a20 ([1]; competitor 25 μM): 1.4
- SILAC ratio, Ssr4 ([2]; competitor 25 μM): 1.2
- SILAC ratio, Aldh3a2 ([3]; competitor 25 μM): 1.6
- SILAC ratio, ABHD6 (Q8R2Y0) ([4]; competitor 25 μM): 1.7
- SILAC ratio, Abhd6 ([4]; competitor 25 μM): 1.7
- SILAC ratio Cisd1 ([5]; competitor 25 μM): 1.1
- SILAC ratio, LPCAT3 (Q6P1A2) ([6]; competitor 25 μM): 2.3
- SILAC ratio, Lpcat3 ([6]; competitor 25 μM): 2.3
- SILAC ratio, PSAP (P07602) ([7]; competitor 25 μM): 1.0
- SILAC ratio Psap ([7]; competitor 25 μM): 1.0
- SILAC ratio Dld ([8]; competitor 25 μM): 1.1

Compound: CCCCC/C=C\C/C=C\C/C=C\C/C=C\CCCC(=O)NCCO [AEA, anandamide, reference compound]
- SILAC ratio Slc25a20 ([1]; competitor 200 μM): 1.6
- SILAC ratio, Ssr4 ([2]; competitor 200 μM): 1.8
- SILAC ratio, Aldh3a2 ([3]; competitor 200 μM): 1.7
- SILAC ratio, ABHD6 (Q8R2Y0) ([4]; competitor 200 μM): 2.3
- SILAC ratio, Abhd6 ([4]; competitor 200 μM): 2.3
- SILAC ratio Cisd1 ([5]; competitor 200 μM): 1.6
- SILAC ratio, LPCAT3 (Q6P1A2) ([6]; competitor 200 μM): 1.4
- SILAC ratio, Lpcat3 ([6]; competitor 200 μM): 1.4
- SILAC ratio, PSAP (P07602) ([7]; competitor 200 μM): 1.4
- SILAC ratio Psap ([7]; competitor 200 μM): 1.4
- SILAC ratio Dld ([8]; competitor 200 μM): 1.1

Compound: CN1CCN(C(=O)c2c(-c3ccccc3)c3cc([N+](=O)[O-])ccc3n2C)CC1 [KML110, (1-Methyl-5-nitro-3-phenyl-1H-indol-2-yl)(4-methylpiperazin-1-yl)methanone]
- SILAC ratio Slc25a20 ([1]; competitor 25 μM): 1.5
- SILAC ratio, Ssr4 ([2]; competitor 25 μM): 1.5
- SILAC ratio, Aldh3a2 ([3]; competitor 25 μM): 1.4
- SILAC ratio, Abhd6 ([4]; competitor 25 μM): 2.6
- SILAC ratio Cisd1 ([5]; competitor 25 μM): 1.6
- SILAC ratio, Lpcat3 ([6]; competitor 25 μM): 1.3
- SILAC ratio Psap ([7]; competitor 25 μM): 1.3
- SILAC ratio Dld ([8]; competitor 25 μM): 1.3

Compound: C=CCN(C)CCCCCCOc1ccc(C(=O)c2ccc(Br)cc2)c(F)c1 [Ro 48-8071, reference compound]
- SILAC ratio Slc25a20 ([1]; competitor 25 μM): 1.2
- SILAC ratio, Ssr4 ([2]; competitor 25 μM): 1.2
- SILAC ratio, Aldh3a2 ([3]; competitor 25 μM): 1.3
- SILAC ratio, ABHD6 (Q8R2Y0) ([4]; competitor 25 μM): 1.2
- SILAC ratio, Abhd6 ([4]; competitor 25 μM): 1.2
- SILAC ratio Cisd1 ([5]; competitor 25 μM): 1.1
- SILAC ratio, LPCAT3 (Q6P1A2) ([6]; competitor 25 μM): 1.1
- SILAC ratio, Lpcat3 ([6]; competitor 25 μM): 1.1
- SILAC ratio, PSAP (P07602) ([7]; competitor 25 μM): 1.0
- SILAC ratio Psap ([7]; competitor 25 μM): 1.0
- SILAC ratio Dld ([8]; competitor 25 μM): 0.8

Compound: CN1CCN(C(=O)c2[nH]c3ccc([N+](=O)[O-])cc3c2-c2ccccc2)CC1 [MJN228, (4-Methylpiperazin-1-yl)(5-nitro-3-phenyl-1H-indol-2-yl)methanone]
- SILAC ratio Slc25a20 ([1]; competitor 10 μM): 1.4
- SILAC ratio Slc25a20 ([1]; competitor 25 μM): 1.4
- SILAC ratio Slc25a20 ([1]; competitor 50 μM): 2.4
- SILAC ratio Slc25a20 ([1]; competitor 100 μM): 3.4
- SILAC ratio, Ssr4 ([2]; competitor 10 μM): 1.5
- SILAC ratio, Ssr4 ([2]; competitor 25 μM): 1.9
- SILAC ratio, Ssr4 ([2]; competitor 50 μM): 2.4
- SILAC ratio, Ssr4 ([2]; competitor 100 μM): 2.6
- SILAC ratio, Aldh3a2 ([3]; competitor 10 μM): 1.2
- SILAC ratio, Aldh3a2 ([3]; competitor 25 μM): 1.8
- SILAC ratio, Aldh3a2 ([3]; competitor 50 μM): 1.7
- SILAC ratio, Aldh3a2 ([3]; competitor 100 μM): 2.1
- SILAC ratio, ABHD6 (Q8R2Y0) ([4]; competitor 25 μM): 1.7
- SILAC ratio, Abhd6 ([4]; competitor 10 μM): 1.2
- SILAC ratio, Abhd6 ([4]; competitor 25 μM): 1.7
- SILAC ratio, Abhd6 ([4]; competitor 50 μM): 2.3
- SILAC ratio, Abhd6 ([4]; competitor 100 μM): 2.9
- SILAC ratio Cisd1 ([5]; competitor 10 μM): 1.3
- SILAC ratio Cisd1 ([5]; competitor 25 μM): 1.5
- SILAC ratio Cisd1 ([5]; competitor 50 μM): 1.4
- SILAC ratio Cisd1 ([5]; competitor 100 μM): 2.4
- SILAC ratio, Lpcat3 ([6]; competitor 10 μM): 1.2
- SILAC ratio, Lpcat3 ([6]; competitor 25 μM): 1.2
- SILAC ratio, Lpcat3 ([6]; competitor 50 μM): 1.4
- SILAC ratio, Lpcat3 ([6]; competitor 100 μM): 1.5
- SILAC ratio, PSAP (P07602) ([7]; competitor 25 μM): 1.4
- SILAC ratio Psap ([7]; competitor 10 μM): 1.1
- SILAC ratio Psap ([7]; competitor 25 μM): 1.4
- SILAC ratio Psap ([7]; competitor 50 μM): 1.4
- SILAC ratio Psap ([7]; competitor 100 μM): 1.6
- SILAC ratio Dld ([8]; competitor 10 μM): 1.2
- SILAC ratio Dld ([8]; competitor 25 μM): 1.2
- SILAC ratio Dld ([8]; competitor 50 μM): 1.2
- SILAC ratio Dld ([8]; competitor 100 μM): 1.1
